Assay results as given in patent US6048523A, “Polyester cyclic compounds, their complexes and bonded bodies” (priority 1996, dated 2000).

Experiments:
Yoshida sarcoma cells = assay: suppression of Yoshida sarcoma cells in culture; format: cell-based; details: Rattus norvegicus, 72 h, 3 days, read-out: suppression rate to control
Experimental: A concentration of each compound or complex in the culture solution was adjusted to 1 mg/ml, 0.5 mg/ml, 0.25 mg/ml or 0.125 mg/ml. After the sarcoma cells were cultivated for 3 days, the number of the cells was measured.

lactic acid bacteria = assay: multiplication of lactic acid bacteria in MRS medium; format: cell-based; details: 0.25 mg/10 ml MRS medium, 48 hours; read-out: Multiplication rates to control
Experimental: Pre-cultivated lactic acid bacteria were seeded into each MRS medium in a predetermined amount. After 48 hours, it was diluted to a predetermined magnification and inoculated on an MRS agar medium to measure the number of the bacteria.

Yoshida sarcomas = assay: Yoshida sarcoma transplanted into rat, oral administration; format: in vivo, Donryu-rat; details: 8 mg/kg/day, 2 weeks
Experimental: Yoshida sarcomas were transplanted into a Donryu-rat of an age of 5 weeks. […] After the administration, sizes of the sarcomas were measured.

macrophages = assay: migration ability of macrophages (glass capillary method) after oral administration; format: in vivo, SD rat; details: oral 4 mg/kg/day, 4 weeks; migration area after 24 hours; ratio to control group
Experimental: After the administration, liquid paraffin was administered into peritoneal cavity of each rat. Three days later, peritoneal exudate cells were taken. Migration ability of macrophages produced from the peritoneal exudate cells was tested by glass capillary method. After 24 hours, a migration area of the macrophage was measured and a ratio of the measured migration area to that of control group was calculated.

[1] = tested on: lactic acid bacteria in the bowel; assay: number of lactic acid bacteria in the bowel of rats after oral administration; format: in vivo, rat; details: oral 4 mg/kg/day, 4 weeks; upper limit of the measurement 20
Source text: After the administration, content of the bowel of each rat was taken, diluted to a predetermined magnification and inoculated on an MRS agar medium to measure the number of lactic acid bacteria in the bowel.

`CC1OC(=O)C(C)OC1=O` (stereo not drawn) [formula (4), lactide] showed an inhibition at 125 µg/mL (Yoshida sarcoma cells; 0.125 mg/ml) of -18.2%, an inhibition at 250 µg/mL (Yoshida sarcoma cells; 0.25 mg/ml) of 0% and an inhibition at 500 µg/mL (Yoshida sarcoma cells; 0.5 mg/ml) of 0%. For the same compound, the inhibition at 1000 µg/mL (Yoshida sarcoma cells; 1 mg/ml) was 40.9%, the activity at 25 µg/mL (lactic acid bacteria) was 116% and the Size of sarcoma (Yoshida sarcomas; average values) was 3216.6 mm^3. For the same compound, the Suppression rate (Yoshida sarcomas; versus control) was 57.9%, the “Ratio of the migration area” value (macrophages) was 1.13 and the “Ratio to control (number of lactic acid bacteria in the bowel)” value [1] was 3.8.
